Peptide text beside a SMILES is read from it. * marks the point of attachment. Cbz = O=C(OCc1ccccc1)*
Tests used:
[1] = test system: Neuro-2a cells; experiment: Cytotoxicity of compounds in Neuro-2a cells; format: cell-based, mouse; settings: for cytotoxicity as compared to that of compound II-1d: 5 or 10 μM concentration, Neuro-2a cells
[2] = target: T1, 109Q-HTTEX1 (Homo sapiens, UniProt P42858); experiment: Western blot of polyQ-expanded huntingtin (109Q-HTTEX1) in transfected Neuro-2a cells; format: cell-based; settings: 5 μM, 24 h
T1 construct: the polyQ-expanded N terminus of HTT translated from the exon 1 of human huntingtin gene; expressed in transfected cells; host or cells: Neuro-2a (mouse neuroblastoma)
Experimental: (§1) Mouse neuroblastoma cell line (Neuro-2a) were cultured in Dulbecco's modified Eagle's medium (DMEM; Gibco) containing 2×10^−3 M glutamine, 10% heat inactivated fetal bovine serum (FBS), and 100 U mL^−1 penicillin-streptomycin (Gibco) at 37° C. in a humidified incubator containing 5% CO2. Alternatively, Neuro-2a cells were cultured in Dulbecco's modified Eagle's medium (DMEM; Invitrogen, Carlsbad, CA, USA) supplemented with 10% heat-inactivated FBS. The cells were incubated in a humidified incubator at 37° C. with 10% CO2. Transfection was performed using T-Pro NTR II (Ji-Feng Biotechnology, Taiwan) following the manufacturer's protocol.
(§2) Alternatively, cells were lysed with RIPA lysis buffer (150 mM sodium chloride, 1% Nonidet P-40, 0.5% sodium deoxycholate, 0.1% SDS, and 50 mM Tris-HCl, pH 8.0) containing 1× protease inhibitor cocktail and 1× phosphatase inhibitor cocktail to prepare total lysates, which were rotated at 4° C. for 1 h. Protein concentrations were determined with a Bio-Rad protein assay kit (Bio-Rad, Hercules, CA, USA). Protein samples were separated on 8-10% SDS-PAGE gels and electrophoretically transferred onto PVDF membranes (Millipore, Billerica, MA, USA). The membranes were incubated overnight at 4° C. with the following primary antibodies: anti-GAPDH (GeneTex; GTX627408), anti-HTT (Habel; a custom antibody raised against protein translated from the exon 1 of HTT (designated HTTEX1), anti-pTau (MC1, a generous gift from Dr. Peter Davies, the Feinstein Institute for Medical Research, New York, USA), and anti-VCP (BD, East Rutherford, NJ, USA). Immunoreactive bands were detected by enhanced chemiluminescence (ECL; Millipore) and recorded using the UVP ChemiDoc-It Imaging System (Upland, CA, USA).
In this example, the effect of the present compound on huntingtin (HTT) protein (a protein known to cause Huntington's disease) was investigated. To this purpose, Neuro-2a cells were transiently transfected with pcDNA3-109Q-HTTEX1 (i.e., the polyQ-expanded N terminus of HTT translated from the exon 1 of human huntingtin gene (designated 109Q-HTTEX1)) and then exposed to the indicated compound (5 μM) for additional 24 h. Total protein lysates were harvested for Western blot analyses, and results are depicted in FIG. 3.

[3] = target: T2, pathogenic tau protein (pTau) (Homo sapiens, UniProt P10636, P618L); experiment: Western blot of pathogenic tau protein (pTau) in SH-SY5Y-Tau-P301L cells; format: cell-based; settings: 5 μM, 24 h, doxycycline-induced SH-SY5Y-Tau-P301L cells
T2 construct: expressed in transfected cells; host or cells: SH-SY5Y-Tau-P301L (doxycycline-inducible)
Experimental: The SH-SY5Y-Tau-P301L cell line (SY5Y-Tau) were cultured in DMEM supplemented with 10% FBS and incubated in a humidified incubator at 37° C. with 5% CO2. To induce the expression of pathogenic Tau (pTau), SY5Y-Tau cells were seeded at 1×10^5/60-mm plate, cultured for 2-3 days to reach 70% confluence, and treated with doxycycline (1 μg/mL) for 24 hr to induce the expression of pTau.
as §2
Hyperphosphorylated tau protein is a major hallmark of Alzheimer's disease and many other neurological disorders (including Huntington's disease). To investigate the effects of the compounds of formula (I) or formula (II) on the pathogenic tau protein (designated pTau), SH-SY5Y-Tau-P301L cells were treated with doxycycline (1 μg/mL) (which induced the expression of pathogenic tau protein (pTau), and the indicated compound (5 μM) for 24 h. Total protein lysates were then harvested and analyzed by Western blot analyses. Results are illustrated in FIG. 4.

[4] = target: T3, eGFP-C-TDP-43 aggregates (Homo sapiens, UniProt Q13148); experiment: Filter trap assay of insoluble eGFP-C-TDP-43 aggregates in transfected Neuro-2a cells; format: cell-based, mouse; settings: 5 μM
T3 construct: expressed in transfected cells; host or cells: Neuro-2a (mouse neuroblastoma)
Experimental: as §1
Neuro-2a cells were seeded in a 6-well plate at a concentration of 2×10^5 cells/well and incubated overnight. Once the cells were attached, Neuro-2a cells were transfected with the eGFP-C-TDP-43 plasmid (2.2 μg) using Turbofect transfection reagent (Invitrogen) and treated with or without 5 μM test compound after 2 h transfection. After incubation for another 22 h, the transfected cells were harvested by RIPA buffer containing protease inhibitor (Roche) and sonicated on ice for 10 seconds. Extracts were centrifuged at 14000 rpm for 10 min at 4° C., followed by measurement of protein concentration using a bicinchoninic acid (BCA) assay. […] Aggregated eGFP-C-TDP-43 protein trapped by the CA membranes was determined by immunoblotting. […]
In this example, the effect of the present compound on C-TDP-43 aggregates was investigated. To this purpose, the eGFP-TDP-43208-414 (hereafter referred as eGFP-C-TDP-43) expressed Neuro-2a cells were first treated with tested compound (e.g., any one of the compounds of formula (I) or (II), then, cells were lysed and the insoluble eGFP-C-TDP43 aggregates were quantified by use of filter trap assay as described in the “Materials and Methods” section; for comparison, slot blot assay was also performed by using the nitrocellulose (NC) membrane for the loading control. Results are depicted in FIG. 1.

[5] = test system: YFP—C-TDP-43 transgenic C. elegans; experiment: Swimming (thrashing) body bend assay of YFP-C-TDP-43 transgenic C. elegans; format: in vivo; settings: YFP—C-TDP-43 C. elegans, swimming in buffer
Experimental: The YFP—C-TDP-43 transgenic strains of C. elegans generated in this study were IW33 [Psnb-l:C-TDP-43219-414-YFP (iwIs22)]. The strains of nematodes were maintained with standard procedure and grown at 20° C. as previously described (Zhang, T. et al. Hum. Mol. Genet. 2011, 20 (10), 1952). For all assays, the transgenic young two-day (80 hours) adults were used. For larvae synchronization, the eggs were isolated by lysing gravid adult worms with freshly prepared bleaching solution (0.5 mL 5 M NaOH with 1 mL bleach) and incubated in S buffer (recipe) for overnight. For drug treatments, compound I-1b and/or DMSO were solely or along with MG132 applied to fresh NGM plates prior to installing the synchronized C. elegans. The body bends of the corresponding treatment in a duration of 30 seconds of the various strains were documented through SMZ800N stereomicroscope equipped with a CCD camera (Nikon). A body bend was counted as the head of C. elegans travels across the mid-body in 1×PBS buffer. Then, the bending videos of C. elegans were analyzed by ImageJ with the wrMTrck plugin (Nussbaum-Krammer, C. I. et al. J. Vis. Exp. 2015, (95), 52321). […]
As YFP—C-TDP-43 readily forms cytosolic aggregates in nervous system, the YFP—C-TDP-43 aggregates both in the neuron processes and neuron bodies of the ventral cord were monitored. […]

T1 sequence (P42858 with tags, fused parts or gaps): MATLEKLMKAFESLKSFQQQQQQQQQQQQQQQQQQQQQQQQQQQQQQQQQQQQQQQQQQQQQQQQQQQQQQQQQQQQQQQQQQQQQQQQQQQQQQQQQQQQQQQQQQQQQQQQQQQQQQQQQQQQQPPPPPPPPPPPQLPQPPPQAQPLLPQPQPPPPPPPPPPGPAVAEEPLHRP
T2 sequence (P10636 1-441 isoform P10636-8 P301L): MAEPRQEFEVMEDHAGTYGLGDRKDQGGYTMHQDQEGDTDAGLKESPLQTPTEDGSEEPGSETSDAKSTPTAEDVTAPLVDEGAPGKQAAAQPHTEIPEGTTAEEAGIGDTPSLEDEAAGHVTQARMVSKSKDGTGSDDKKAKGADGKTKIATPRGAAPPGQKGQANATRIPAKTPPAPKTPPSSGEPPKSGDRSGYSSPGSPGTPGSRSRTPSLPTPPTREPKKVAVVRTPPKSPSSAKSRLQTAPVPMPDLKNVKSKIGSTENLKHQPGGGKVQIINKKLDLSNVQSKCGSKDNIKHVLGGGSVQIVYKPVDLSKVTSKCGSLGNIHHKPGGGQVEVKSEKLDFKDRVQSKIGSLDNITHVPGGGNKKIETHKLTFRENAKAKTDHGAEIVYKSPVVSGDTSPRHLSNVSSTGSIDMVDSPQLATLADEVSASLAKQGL
T3 sequence (Q13148 208-414 limits assumed): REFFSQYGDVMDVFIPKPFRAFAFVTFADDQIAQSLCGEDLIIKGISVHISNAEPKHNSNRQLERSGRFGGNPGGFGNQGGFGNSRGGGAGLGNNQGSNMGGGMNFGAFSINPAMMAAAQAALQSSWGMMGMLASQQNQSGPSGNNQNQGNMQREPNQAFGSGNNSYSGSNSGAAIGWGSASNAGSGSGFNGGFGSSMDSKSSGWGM

SMILES | reduction of the expression of 109Q-HTTEX1 [2] | reduction of the expressed level of pTau [3] | level of C-TDP-43 aggregate as compared to the control group [4] | also measured
CN(C)c1ccc(-c2nc3ccc(OCCOCCNc4cccc5c4C(=O)N(C4CCC(=O)NC4=O)C5=O)cc3s2)cc1 (stereo not drawn) [I-1a, 4-((2-(2-((2-(4-(dimethylamino)phenyl)benzo[d]thiazol-6-yl)oxy)ethoxy)ethyl)amino)-2-(2,6-dioxopiperidin-3-yl)isoindoline-1,3-dione] | – | – | – | cytotoxicity comparing to mock group of Neuro-2a cells ([1]; 5 μM concentration): neglectable cytotoxicity
CN(C)c1ccc(-c2nc3ccc(OCCOCCOCCOCCNc4cccc5c4C(=O)N(C4CCC(=O)NC4=O)C5=O)cc3s2)cc1 (stereo not drawn) [I-1c, 4-((2-(2-(2-(2-((2-(4-(dimethylamino)phenyl)benzo[d]thiazol-6yl)oxy)ethoxy)ethoxy)ethoxy)ethyl)amino)-2-(2,6-dioxopiperidin-3-yl)isoindoline-1,3-dione] | approximately 50% | approximately 40% | – | –
CN(C)c1ccc(-c2nc3ccc(OCCOCCOCCOCCOCCNc4cccc5c4C(=O)N(C4CCC(=O)NC4=O)C5=O)cc3s2)cc1 (stereo not drawn) [I-1d, 4-((14-((2-(4-(dimethylamino)phenyl)benzo[d]thiazol-6-yl)oxy)-3,6,9,12-tetraoxatetradecyl)amino)-2-(2,6-dioxopiperidin-3-yl)isoindoline-1,3-dione] | approximately 50% | approximately 40% | – | –
CC(C)C[C@@H](C=O)NC(=O)[C@H](CC(C)C)NC(=O)[C@H](CC(C)C)NC(=O)OCc1ccccc1 [MG132, reference compound] (Cbz-Leu-Leu-Leu-aldehyde) | – | – | – | bending frequency (in words) [5]: slow bending frequency

Further lines, with some results ahead:

reduction of the expression of 109Q-HTTEX1 [2] | reduction of the expressed level of pTau [3] | level of C-TDP-43 aggregate as compared to the control group [4] | SMILES | also measured
20% | – | significantly reduce | CNc1ccc(/C=C/c2ccc(OCCOCCOCCNc3cccc4c3C(=O)N(C3CCC(=O)NC3=O)C4=O)nc2)cc1 (stereo not drawn) [II-1b, (E)-2-(2,6-dioxopiperidin-3-yl)-4-((2-(2-(2-((5-(4-(methylamino)styryl)pyridin-2-yl)oxy)ethoxy)ethoxy)ethyl)amino)isoindoline-1,3-dione] | reduction of the expressed level of pTau ([3]; listed as IT-1b): negligible effect; cytotoxicity as compared to that of compound II-1d [1]: less cytotoxicity
approximately 50% | approximately 40% | significantly reduce | CNc1ccc(/C=C/c2ccc(OCCOCCOCCNc3cccc4c3C(=O)N(C3CCC(=O)NC3=O)C4=O)nc2)cc1 (stereo not drawn) [II-1d, (E)-2-(2,6-dioxopiperidin-3-yl)-4-((2-(2-(2-((5-(4-(methylamino)styryl)pyridin-2-yl)oxy)ethoxy)ethoxy)ethyl)amino)isoindoline-1,3-dione] | –
– | – | significantly reduce | CNc1ccc(/C=C/c2ccc(OCCCCCCCCCCNc3cccc4c3C(=O)N(C3CCC(=O)NC3=O)C4=O)nc2)cc1 (stereo not drawn) [II-2d, (E)-2-(2,6-dioxopiperidin-3-yl)-4-((10-((5-(4-(methylamino)styryl)pyridin-2-yl)oxy)decyl)amino)isoindoline-1,3-dione] | cytotoxicity as compared to that of compound II-1d [1]: lower toxicity

From US20240400549A1, “COMPOUNDS AND THEIR USES FOR TREATING NEURODEGENERATIVE DISEASE” (Academia Sinica, priority 2021, published 2024)
